Source: US20140024700A1, “BLOOD-BORNE MIRNAS AS SURROGATE MARKERS OF DRUG EFFICACY FOR CARDIAC CONDITIONS” (miRagen Therapeutics, Inc., priority 2010, published 2014)
“Also recorded” adds a separate entry of the source.

Key:
[1] = system: miR-208a, Myh6, Myh7; assay: Cardiac tissue markers by Taqman RT-PCR, 4% NaCl diet (Example 2); format: in vivo, rat; details: 25 mg/kg sc every 2 weeks
Description: The flowing experimental groups were tested:
Following catheter implant surgery, high-salt diet was initiated. […] Animals were sacrificed 8 weeks after the initial injection.
Tissue RNA was isolated using standard Trizol RNA isolation.

[2] = system: Dahl salt-sensitive rats; assay: Dahl salt-sensitive rat model, 4% NaCl diet: body weight, echocardiography, histology (Example 1); format: in vivo; details: 4% NaCl HS diet
Description: To obtain additional insight into the basis for the protective effects seen in response to antimiR-208a, subsequent studies were done using a 4.0% NaCl diet, during which the rats received saline, 5 or 25 mg/kg of antimiR-208a, or 25 mg/kg of antimiR control every 2 weeks.
The LNA-antimiR oligonucleotides were synthesized at miRagen Therapeutics, Inc. as unconjugated and fully phosphorothiolated oligonucleotides perfectly complementary to the 5′ region of the mature miR-208a sequence. The LNA control oligonucleotide consisted of a sequence directed against a C. elegans specific miRNA. Unless otherwise indicated, in vivo delivery of the oligonucleotide chemistries was achieved by low pressure intravenous (i.v.) injections via the tail vein or subcutaneous injections of either adult male C56B16 mice or adult male Dahl Salt-sensitive rats (Harlan, Indianapolis). […] Tissue samples were collected at the indicated timepoints for molecular or histological examination. Dahl rats were maintained on 0.25 NaCl or placed on 4% or 8% NaCl diet at 8 weeks of age (Harlan, Indianapolis).

[3] = system: miR-208a, miR-499, miR-208b, Myh6, Myh7b, Myh7, Dynlt1, Vcpip, Tegt; assay: Cardiac tissue real-time PCR, 6% NaCl diet (Example 3); format: in vivo, rat
Description: One week following the initiation of the 6.0% NaCl diet, rats were dosed subcutaneously (sc) with saline or oligonucleotides (M−10101, 5′-CTTTTTGCTCGTCTTA-3′ (SEQ ID NO: 12) or M-10591, 5′-TCCTAGAAAGAGTAGA-3′ (SEQ ID NO:13)) at 25 mg/kg every 2 weeks. Captopril or water were dosed daily by oral gavage. Echocardiography was performed every 2 weeks starting one week post […] dosing. The Captopril dose for rat was selected to match the standard human dose in man.
For in vivo real-time PCR analysis, RNA was extracted from cardiac tissue using Trizol (Invitrogen) after which two μg RNA from each tissue sample was used to generate cDNA using Super Script II reverse transcriptase per manufacturer's specifications (Invitrogen). To detect the level of miR-208 RT-PCR was performed using the Taqman MicroRNA assay (Applied Biosystems, ABI) according the manufacturer's recommendations, using 10-100 ng of total RNA. The expression of a subset of genes was analyzed by quantitative real time PCR using Taqman probes purchased from AB.

[4] = system: Dahl salt-sensitive rats; assay: Dahl salt-sensitive rat heart failure model, 8% NaCl high-salt diet (Example 1); format: in vivo; details: 8% NaCl HS diet
Source text: To determine the therapeutic potential of miR-208a inhibition in vivo, we designed an antimiR targeting bases 2 to 17 of the 5′ region of mature miR-208a and containing a combination of LNA and DNA linked by phosphorothioate bonds. The sequence of the antimiR-208a, which is referred to as M-10101, was 5′-[…]-3′ (SEQ ID NO: 12). To test the therapeutic relevance of miR-208a inhibition, we used Dahl salt-sensitive rats that were either fed a low-salt (LS) diet (0.25% NaCl) or a high-salt (HS) diet (8.0% NaCl) starting at 8 weeks of age. Initiation of an HS diet in Dahl salt-sensitive rats results in chronic hypertension, which progresses to a model of congestive heart failure associated primarily with diastolic dysfunction (Rodenbaugh et al. (2007) Am J Physiol Heart Circ Physiol. 293, H1705-H1713). After one week on the HS diet, rats were administered saline, 25 mg/kg antimiR-208a, or 25 mg/kg scrambled control oligo subcutaneously every two weeks. […] As an indication of health, we monitored body weight during the duration of the study.
The LNA-antimiR oligonucleotides were synthesized at miRagen Therapeutics, Inc. as unconjugated and fully phosphorothiolated oligonucleotides perfectly complementary to the 5′ region of the mature miR-208a sequence. The LNA control oligonucleotide consisted of a sequence directed against a C. elegans specific miRNA. […]

[5] = listed as antimiR-208a, 25 mg/kg
[6] = 8 weeks, histological quantification, listed as antimiR-208a
[7] = 8 weeks after HS diet, vs HS/saline, listed as antimiR-208a
[8] = M-10101 25 mg/kg sc, Captopril po daily

M-10101: antimiR targeting bases 2 to 17 of mature miR-208a, LNA and DNA linked by phosphorothioate bonds; 5′-CTTTTTGCTCGTCTTA-3′ (SEQ ID NO: 12) (all phosphorothioate, sugars by position and methylation of C not given here; LNA/DNA mixmer; listed as Homo sapiens)
Myh7 expression in cardiac tissue ([1]; listed as AntimiR-208a, 25 mg/kg): blunted the hypertension-induced increase in Myh7 expression
Myh6 expression in cardiac tissue [1, 5]: prevented the high-salt diet-induced decrease in Myh6 expression; also recorded: prevents this decrease
Myh7 expression in cardiac tissue [1, 5]: reduces this increase
miR-208a in cardiac tissue ([1]; vs HS/Saline): greater inhibition of miR-208a
Cardiomyocyte hypertrophy (cardiomyocyte size) [2, 6]: significant reduction in cardiomyocyte hypertrophy; also recorded: significantly less hypertrophy
Periarteriolar (perivascular) fibrosis, Picrosirius Red staining [2, 6]: reduced periarteriolar fibrosis; also recorded: significantly less hypertrophy and fibrosis
Body weight gain ([2]; 5 or 25 mg/kg every 2 weeks, listed as antimiR-208a): maintained their increase in weight gain; also recorded: sufficient to maintain weight gain comparable to that in animals on a normal diet
Isovolumic relaxation time (IVRT), echocardiography [2, 7]: significant dose-dependent reduction; also recorded: significantly improved
Mitral valve early to active filling velocity ratio (MV E/A) [2, 7]: normalization; also recorded: significantly improved
Isovolumic relaxation time, time-dependent echocardiography ([2]; every 2 weeks after HS diet, vs HS/saline, data not shown): significant reductions in isovolumic relaxation time
Expression of direct target genes of miR-208a (Dynlt1, Vcpip, Tegt) in cardiac tissue ([3]; 25 mg/kg sc): increase in expression
miR-208a cardiac level ([3]; 25 mg/kg sc every 2 weeks): further reduced
miR-208b cardiac level ([3]; 25 mg/kg sc every 2 weeks): reduction of cardiac levels
miR-499 cardiac level ([3]; 25 mg/kg sc every 2 weeks): reduction of cardiac levels
Myh7b levels in the heart [3, 8]: specifically reduced
αMHC (Myh6) in the heart (reduced by HS diet) [3, 8]: normalized
βMHC (Myh7) expression (increase induced by HS diet) ([3]; M-10101 25 mg/kg sc, Captopril po daily, listed as antimiR-208a): more effective; also recorded: not significantly different from animals on the LS diet
Food intake [4]: comparable ingestion between all HS-fed groups
Survival (Kaplan-Meier) ([4]; 25 mg/kg sc every 2 weeks starting 1 week after HS diet, listed as antimiR-208a, 25 mg/kg): significantly alleviated these symptoms; also recorded: significantly improved
